Test results reported in article PMC2772130 (Chemical research in toxicology, 2008).
Where two headings read alike, the source gives them in different places.

Key:
P450 1B1 [1] = target: T1, P450 1B1 (Homo sapiens, UniProt Q16678); experiment: Quenching of PAH; conditions: for interaction with P450 1B1 (quenching of inhibitor fluorescence): inhibitors at 10 nM
T1 sequence (Q16678 1-543): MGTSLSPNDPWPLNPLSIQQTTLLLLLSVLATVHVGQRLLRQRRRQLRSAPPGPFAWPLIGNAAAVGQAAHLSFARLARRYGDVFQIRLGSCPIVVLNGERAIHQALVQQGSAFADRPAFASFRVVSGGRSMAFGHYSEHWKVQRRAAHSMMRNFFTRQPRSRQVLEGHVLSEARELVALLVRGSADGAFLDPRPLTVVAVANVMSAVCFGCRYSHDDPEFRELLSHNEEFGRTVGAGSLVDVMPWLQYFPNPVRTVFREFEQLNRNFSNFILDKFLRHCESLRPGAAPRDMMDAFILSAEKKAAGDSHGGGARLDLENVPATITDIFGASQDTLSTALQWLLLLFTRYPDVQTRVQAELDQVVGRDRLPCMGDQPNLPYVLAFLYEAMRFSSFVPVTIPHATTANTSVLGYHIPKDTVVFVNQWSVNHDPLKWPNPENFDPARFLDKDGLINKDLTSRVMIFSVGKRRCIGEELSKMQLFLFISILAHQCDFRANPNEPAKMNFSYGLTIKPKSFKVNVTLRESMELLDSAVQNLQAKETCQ

P450 1A1 [2] = target: T2, P450 1A1 (Homo sapiens, UniProt P04798); experiment: Quenching of P450 fluorescence with inhibitors, P450 1A1; format: binding
T2 sequence (P04798 1-512): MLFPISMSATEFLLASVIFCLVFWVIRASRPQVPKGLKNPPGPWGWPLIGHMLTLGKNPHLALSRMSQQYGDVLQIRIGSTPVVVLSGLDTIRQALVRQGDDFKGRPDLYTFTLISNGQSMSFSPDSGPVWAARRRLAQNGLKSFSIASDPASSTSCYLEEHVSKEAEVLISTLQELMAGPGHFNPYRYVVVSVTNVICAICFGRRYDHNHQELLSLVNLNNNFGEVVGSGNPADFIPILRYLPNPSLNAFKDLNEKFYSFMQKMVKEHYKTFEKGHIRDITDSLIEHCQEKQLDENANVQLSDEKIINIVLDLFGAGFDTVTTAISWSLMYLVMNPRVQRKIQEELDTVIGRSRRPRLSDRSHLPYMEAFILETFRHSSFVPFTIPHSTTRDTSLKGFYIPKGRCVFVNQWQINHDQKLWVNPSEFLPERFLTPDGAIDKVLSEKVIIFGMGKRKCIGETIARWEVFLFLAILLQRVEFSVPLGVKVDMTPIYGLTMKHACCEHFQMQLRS

P450 1B1 [3] = target: T1, P450 1B1; experiment: Quenching of P450 1B1; format: binding; conditions: extrapolated % quenching; 1.0 μM P450 1B1
P450 1B1 [4] = target: T1, P450 1B1; experiment: Spectral binding titrations with purified P450 1B1; conditions: for ΔAmax (ΔA~416-A~383) / wavelengths (peak/trough): 1 μM P450 1B1; for ΔAmax (ΔA~416-A~383): means ± S.E.; for wavelengths (peak/trough): pH 7.4
P450 1A2 [5] = target: T3, P450 1A2 (Homo sapiens, UniProt P05177); experiment: Quenching of P450 fluorescence with inhibitors, P450 1A2; format: binding
T3 sequence (P05177 1-516): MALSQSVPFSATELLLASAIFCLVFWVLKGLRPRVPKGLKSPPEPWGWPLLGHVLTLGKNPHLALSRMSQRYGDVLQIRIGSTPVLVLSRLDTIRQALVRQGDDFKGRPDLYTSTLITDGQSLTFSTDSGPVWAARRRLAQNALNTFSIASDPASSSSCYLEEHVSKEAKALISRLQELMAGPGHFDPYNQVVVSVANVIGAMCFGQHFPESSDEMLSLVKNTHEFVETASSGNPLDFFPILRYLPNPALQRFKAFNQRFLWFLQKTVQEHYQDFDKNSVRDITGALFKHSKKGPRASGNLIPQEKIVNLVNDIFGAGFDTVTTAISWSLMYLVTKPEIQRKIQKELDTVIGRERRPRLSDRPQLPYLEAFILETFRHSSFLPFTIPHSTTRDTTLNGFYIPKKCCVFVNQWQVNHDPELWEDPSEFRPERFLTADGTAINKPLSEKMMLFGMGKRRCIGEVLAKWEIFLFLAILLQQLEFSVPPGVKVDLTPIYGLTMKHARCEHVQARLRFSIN

P450 1B1 [6] = target: T1, P450 1B1; experiment: Inhibition of P450 1B1-dependent 7-ethoxyresorufin O-deethylation; conditions: for IC50: means and SE; for course of EROD Km values during the incubation: direct inhibitors
P450 1B1 [7] = target: T1, P450 1B1
P450 1A1 [8] = target: T2, P450 1A1; experiment: Inhibition of P450 1A1-dependent EROD activity; format: biochemical; conditions: for fold increase in EROD Km of P450 1A1: 1PP 66 nM, 3PPh 333 nM
P450 1A2 [9] = target: T3, P450 1A2; experiment: Inhibition of P450 1A2-dependent EROD activity; format: biochemical; conditions: 37 °C
[10] = inhibition of EROD activity IC50, 15 s of incubation time (direct and direct/restore inhibitors)

Row | Structure (SMILES) | PAH binding to P450 1B1 Bmax (P450 1B1 [3]) [%] | Kd (P450 1B1 [4]) [µM] | ΔAmax (ΔA~416-A~383) (P450 1B1 [4]) | wavelengths (peak/trough) (P450 1B1 [4]) | IC50 (P450 1B1 [6]; [10]) [nM] | ΔAmax / Ks (P450 1B1 [7]) | further results
1 | C=Cc1ccc2ccc3cccc4ccc1c2c34 [1VP, 1-vinylpyrene] | 65 ± 2 | 4.3 ± 0.5 | 0.092 ± 0.006 | 416/383 | 88 ± 10 | 0.021 | Kd (P450 1B1 [1]): 1.9 to 18 nM; Kd (P450 1A1 [2]): ~10 µM; Kd (P450 1A2 [5]): ~10 µM
2 | C#Cc1ccc2ccccc2c1 [2EN, 2-ethynylnaphthalene] |  | 15 ± 8 | 0.049 ± 0.038 | 415/383 | 190000 ± 16000 |  | ΔAmax / Ks (P450 1B1 [4]): 0.003; course of EROD Km values during the incubation (P450 1B1 [6]): increased throughout the incubation period
3 | C#Cc1cc2ccc3cccc4ccc(c1)c2c34 [2EP, 2-ethynylpyrene] | 69 ± 3 | 3.4 ± 0.5 | 0.071 ± 0.005 | 416/387 | 110 ± 20 | 0.021 | Kd (P450 1B1 [1]): 1.9 to 18 nM; course of EROD Km values during the incubation (P450 1B1 [6]): increased throughout the incubation period
4 | C#Cc1ccc2c(ccc3ccccc32)c1 [2EPh, 2-ethynylphenanthrene] | 62 ± 4 | 4.2 ± 1.3 | 0.080 ± 0.013 | 414/383 | 130 ± 21 | 0.020 | Kd (P450 1B1 [1]): 1.9 to 18 nM; course of EROD Km values during the incubation (P450 1B1 [6]): increased throughout the incubation period
5 | CC#Cc1ccc2c(ccc3ccccc32)c1 [2PPh, 2-(1-propynyl)phenanthrene] | 77 ± 5 | 2.2 ± 0.1 | 0.067 ± 0.001 | 415/383 | 100 ± 12 | 0.030 | Kd (P450 1B1 [1]): 1.9 to 18 nM
6 | C#Cc1ccc2ccc3ccccc3c2c1 [3EPh, 3-ethynylphenanthrene] | 108 ± 22 | 3 ± 0.4 | 0.071 ± 0.004 | 414/383 | 110 ± 16 | 0.024 | type of spectral change with P450 1B1 (P450 1B1 [4]; difference spectra): reverse type I
7 | Cc1ccc2cc3c(ccc4ccccc43)c3c2c1CC3 [3MC, 3-methylcholanthrene] | 105 ± 6 |  |  |  | 14 ± 2 |  | interaction with P450 1B1 (quenching of inhibitor fluorescence) (P450 1B1 [1]): not found
8 | CC#Cc1ccc2ccc3ccccc3c2c1 [3PPh, 3-(1-propynyl)phenanthrene] | 73 ± 5 | 3.1 ± 0.4 | 0.060 ± 0.004 | 415/383 | 40 ± 3 | 0.019 | fold increase in EROD Km of P450 1A1 (P450 1A1 [8]; at 360 s): 25 fold; fold increase in EROD Km of P450 1A1 (P450 1A1 [8]; initial incubation time): ~ 8 fold; mechanism of inhibition of P450 1A1 EROD activity (P450 1A1 [8]; 37 °C, 30 min): mechanism-based inhibitors; mechanism of inhibition of P450 1A2 EROD activity (P450 1A2 [9]): mechanism-based manner; EROD kcat of P450 1B1 relative to controls (P450 1B1 [6]; 1PP 66 nM, 3PPh 33 nM, after 6 min of incubation): 56%; fold increase in EROD Km of P450 1B1 (P450 1B1 [6]; 1PP 66 nM, 3PPh 33 nM, at 15 s): 2.3 fold; EROD Km of P450 1B1 relative to control value (P450 1B1 [6]; 3PPh 33 nM, 6 min of incubation): one-third; EROD kcat of P450 1B1 relative to control, first decrease (P450 1B1 [6]; initial stage of incubation): ~ one-fifth
9 | C#Cc1cc2cccc3ccc4cccc1c4c32 [4EP, 4-ethynylpyrene] | 67 ± 3 | 4 ± 0.9 | 0.052 ± 0.006 | 416/383 | 250 ± 20 | 0.013 | Kd (P450 1B1 [1]): 1.9 to 18 nM
10 | C#Cc1ccc(-c2ccccc2)cc1 [4Ebi, 4-ethynylbiphenyl] |  | 7.6 ± 1.2 | 0.023 ± 0.002 | 416/383 | 3300 ± 500 |  | ΔAmax / Ks (P450 1B1 [4]): 0.003; course of EROD Km values during the incubation (P450 1B1 [6]): increased throughout the incubation period
11 | CC#Cc1ccc(-c2ccccc2)cc1 [4Pbi, 4-(1-propynyl)biphenyl] |  | 12 ± 5 | 0.074 ± 0.022 | 415/386 |  |  | ΔAmax / Ks (P450 1B1 [4]): 0.005; IC50 (P450 1B1 [6]; inhibition of EROD activity IC50, 6 min of incubation time (mechanism-based inhibitor)): 17000 ± 2000 nM
12 | Cc1cc2ccccc2c2ccc3ccccc3c12 [5MeCh, 5-methylchrysene] | 83 ± 5 |  |  |  | 8 ± 1 |  | interaction with P450 1B1 (quenching of inhibitor fluorescence) (P450 1B1 [1]): not found
13 | C#Cc1cc2ccccc2c2ccccc12 [9EPh, 9-ethynylphenanthrene] | 52 ± 3 | 3.6 ± 1 | 0.071 ± 0.010 | 415/383 | 140 ± 18 | 0.020 | course of EROD Km values during the incubation (P450 1B1 [6]): increased throughout the incubation period
14 | CC#Cc1cc2ccccc2c2ccccc12 [9PPh, 9-(1-propynyl)phenanthrene] | 61 ± 3 | 3.2 ± 0.3 | 0.049 ± 0.002 | 416/383 | 110 ± 21 | 0.015 | course of EROD Km values during the incubation (P450 1B1 [6]): increased throughout the incubation period
15 | c1ccc2cc3c(ccc4ccccc43)cc2c1 [B[a]A, benz[a]anthracene] | 46 ± 1 |  |  |  |  |  | IC50 (P450 1B1 [6]; read-out: inhibition of EROD activity IC50, 15 s of incubation time (direct and direct/restore inhibitors)): 9 ± 1 nM
16 | c1ccc2c(c1)-c1cccc3c1c-2cc1ccccc13 [B[b]FA, benzo[b]fluoranthene] | 91 ± 2 |  |  |  | 5 ± 1 |  | interaction with P450 1B1 (quenching of inhibitor fluorescence) (P450 1B1 [1]): not found; Kd (P450 1A1 [2]): ~10 µM; Kd (P450 1A2 [5]): ~10 µM
17 | c1ccc2c(c1)c1cccc3ccc4cccc2c4c31 [B[e]P, benzo[e]pyrene] | 100 ± 6 |  |  |  | 17 ± 2 |  | interaction with P450 1B1 (quenching of inhibitor fluorescence) (P450 1B1 [1]): not found
18 | c1ccc2c3c(ccc2c1)-c1cccc2cccc-3c12 [B[j]FA, benzo[j]fluoranthene] |  |  |  |  | 44 ± 6 |  | 
19 | c1ccc2c(c1)ccc1nc3ccc4ccccc4c3cc12 [DB[a,j]Ac, dibenz[a,j]acridine] |  |  |  |  | 15 ± 2 |  | Kd (P450 1B1 [1]): 14 nM
20 | Cc1c2ccccc2c(C)c2c1ccc1ccccc12 [DMBA, 7,12-dimethylbenz[a]anthracene] | 62 ± 1 |  |  |  | 300 ± 33 |  | 
21 | c1ccc2c(c1)-c1cccc3cccc-2c13 [FA, fluoranthene] | 91 ± 2 |  |  |  | 15 ± 1 |  | interaction with P450 1B1 (quenching of inhibitor fluorescence) (P450 1B1 [1]): not found; Kd (P450 1A1 [2]): ~10 µM; Kd (P450 1A2 [5]): ~10 µM
22 | c1ccc2c(c1)ccc1c3ccccc3ccc21 [chrysene] | 84 ± 6 |  |  |  | 92 ± 11 |  | interaction with P450 1B1 (quenching of inhibitor fluorescence) (P450 1B1 [1]): not found
